Data as given in PMC10035947, “Development of novel anilinoquinazoline-based carboxylic acids as non-classical carbonic anhydrase IX and XII inhibitors” (Journal of Enzyme Inhibition and Medicinal Chemistry, 2023).

Assays:
IGROV1 = assay: NCI SRB assay; type: cell-based, human
[1] = tested on: 59 human cancer cell lines representing nine tumour subpanels; assay: NCI SRB assay, panel and subpanel summaries; settings: all cell lines
NCI-H460 = assay: NCI SRB assay; type: cell-based, human
BT-549 = assay: NCI SRB assay; type: cell-based, human
HCT-116 = assay: NCI SRB assay; type: cell-based, human
HOP-92 = assay: NCI SRB assay; type: cell-based, human
T-47D = assay: NCI SRB assay; type: cell-based, human
PC-3 = assay: NCI SRB assay; type: cell-based, human
MCF7 = assay: NCI SRB assay; type: cell-based, human
SW-620 = assay: NCI SRB assay; type: cell-based, human
NCI-H522 = assay: NCI SRB assay; type: cell-based, human
NCI/ADR-RES = assay: NCI SRB assay; type: cell-based, human
SNB-75 = assay: NCI SRB assay; type: cell-based, human
LOX IMVI = assay: NCI SRB assay; type: cell-based, human
OVCAR-3 = assay: NCI SRB assay; type: cell-based, human
TK-10 = assay: NCI SRB assay; type: cell-based, human
ACHN = assay: NCI SRB assay; type: cell-based, human
MDA-MB-468 = assay: NCI SRB assay; type: cell-based, human
NCI-H23 = assay: NCI SRB assay; type: cell-based, human
hCA XII = biological target: T1, hCA XII (Homo sapiens, UniProt O43570); assay: stopped flow CO2 hydrase assay; type: biochemical
T1 construct: made in house
In short: (§1)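 Recombinant enzymes assayed by stopped-flow CO2 hydration using 0.2 mM phenol red at 557 nm in 20 mM Hepes pH 7.5 with 20 mM Na2SO4, CO2 1.7–17 mM. Inhibitor and enzyme preincubated 15 min at room temperature.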

hCA IX = biological target: T2, hCA IX (Homo sapiens, UniProt Q16790); assay: stopped flow CO2 hydrase assay; type: biochemical
T2 construct: made in house
In short: as §1

CCRF-CEM = assay: NCI SRB assay; type: cell-based, human
SF-295 = assay: NCI SRB assay; type: cell-based, human
M14 = assay: NCI SRB assay; type: cell-based, human
CAKI-1 = assay: NCI SRB assay; type: cell-based, human
UACC-257 = assay: NCI SRB assay; type: cell-based, human
NCI-H226 = assay: NCI SRB assay; type: cell-based, human

T1 sequence (O43570 25-354): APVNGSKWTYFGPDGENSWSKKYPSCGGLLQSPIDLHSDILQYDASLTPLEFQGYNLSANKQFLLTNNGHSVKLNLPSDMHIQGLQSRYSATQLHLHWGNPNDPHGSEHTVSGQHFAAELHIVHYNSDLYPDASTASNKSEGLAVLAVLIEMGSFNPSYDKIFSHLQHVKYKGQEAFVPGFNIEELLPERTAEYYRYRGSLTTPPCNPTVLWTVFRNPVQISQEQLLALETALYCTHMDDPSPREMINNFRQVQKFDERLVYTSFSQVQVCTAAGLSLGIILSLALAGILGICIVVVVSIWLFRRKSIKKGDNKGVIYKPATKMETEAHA

Cc1cccc(-c2nc(Nc3ccccc3C(=O)O)c3ccccc3n2)c1 [6a, 2-((2-(m-Tolyl)quinazolin-4-yl)amino)benzoic acid]
GI% (IGROV1; IGROV1, 10 μM): 41%
Growth Percent (IGROV1; IGROV1, 1.00E-5 Molar): 59.24%
Mean GI % ([1]; 10 μM): 63%
Mean Growth Percent ([1]; 1.00E-5 Molar): 37.30%
GI% (NCI-H460; NCI-H460, 10 μM): 81%
Growth Percent (NCI-H460; NCI-H460, 1.00E-5 Molar): 19.15%
GI% (BT-549; BT-549, 10 μM): 100%
Growth Percent (BT-549; BT-549, 1.00E-5 Molar): -0.68%
GI% (HCT-116; HCT-116, 10 μM): 78%
Growth Percent (HCT-116; HCT-116, 1.00E-5 Molar): 22.67%
GI% (HOP-92; HOP-92, 10 μM): 105%
Growth Percent (HOP-92; HOP-92, 1.00E-5 Molar): -5.02%
GI% (T-47D; 10 μM): 73%
Growth Percent (T-47D; 1.00E-5 Molar): 26.79%
GI% (PC-3; PC-3, 10 μM): 71%
Growth Percent (PC-3; PC-3, 1.00E-5 Molar): 29.47%
GI% (MCF7; MCF7, 10 μM): 76%
Growth Percent (MCF7; MCF7, 1.00E-5 Molar): 23.97%
GI% (SW-620; SW-620, 10 μM): 65%
Growth Percent (SW-620; SW-620, 1.00E-5 Molar): 35.45%
GI% (NCI-H522; NCI-H522, 10 μM): 40%
Growth Percent (NCI-H522; NCI-H522, 1.00E-5 Molar): 59.94%
GI% (NCI/ADR-RES; 10 μM): 75%
Growth Percent (NCI/ADR-RES; 1.00E-5 Molar): 24.78%
GI% (SNB-75; SNB-75, 10 μM): 45%
Growth Percent (SNB-75; SNB-75, 1.00E-5 Molar): 55.27%
GI% (LOX IMVI; 10 μM): 64%
Growth Percent (LOX IMVI; 1.00E-5 Molar): 36.42%
GI% (OVCAR-3; OVCAR-3, 10 μM): 66%
Growth Percent (OVCAR-3; OVCAR-3, 1.00E-5 Molar): 34.15%
GI% (TK-10; TK-10, 10 μM): – (Only GI% higher than 20% are shown)
Growth Percent (TK-10; TK-10, 1.00E-5 Molar): 85.85%
GI% (ACHN; 10 μM): 63%
Growth Percent (ACHN; 1.00E-5 Molar): 36.44%
GI% (MDA-MB-468; MDA-MB-468, 10 μM): 115%
Growth Percent (MDA-MB-468; MDA-MB-468, 1.00E-5 Molar): -15.06%
GI% (NCI-H23; NCI-H23, 10 μM): 79%
Growth Percent (NCI-H23; NCI-H23, 1.00E-5 Molar): 20.79%
Selectivity ratio I/XII (hCA XII; KI hCA I / KI hCA XII): 11.1
Selectivity ratio II/XII (hCA XII; KI hCA II / KI hCA XII): 9.47
Ki (hCA XII; mean from 3 assays): 9 µM
Selectivity ratio I/IX (hCA IX; KI hCA I / KI hCA IX): 2.4
Selectivity ratio II/IX (hCA IX; KI hCA II / KI hCA IX): 2.00
Ki (hCA IX; mean from 3 assays): 42.5 µM
GI% (CCRF-CEM; 10 μM): 82%
Growth Percent (CCRF-CEM; 1.00E-5 Molar): 17.83%
GI% (SF-295; SF-295, 10 μM): 73%
Growth Percent (SF-295; SF-295, 1.00E-5 Molar): 27.07%
GI% (M14; M14, 10 μM): 75%
Growth Percent (M14; M14, 1.00E-5 Molar): 25.25%
GI% (CAKI-1; CAKI-1, 10 μM): 48%
Growth Percent (CAKI-1; CAKI-1, 1.00E-5 Molar): 52.39%
GI% (UACC-257; UACC-257, 10 μM): 51%
Growth Percent (UACC-257; UACC-257, 1.00E-5 Molar): 49.24%
GI% (NCI-H226; NCI-H226, 10 μM): 64%
Growth Percent (NCI-H226; NCI-H226, 1.00E-5 Molar): 36.13%
